# Test system: 624824-186-R-J3-PDC multicell spheroids, viability
# Experiment: Anticancer human tumor 624824-186-R-J3-PDC patient-derived colon adenocarcinoma cell line growth inhibition [PI3K]
# Conditions: for viability, T/C: stronger effect = lower value
# Summary of the method: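 Tumor cells grown as multi-cell spheroids with HUVEC endothelial cells and MSC fibroblast-like stroma were treated with targeted agents combined with inavolisib, alpelisib, duvelisib or copanlisib. Doses fell in half-log steps from near clinical Cmax, else from 10 microM. Viability was measured.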
# [1] = curve of first compound, second compound 0.00316 µM
# [2] = curve of first compound, second compound 0.01 µM
# [3] = curve of first compound, second compound 0.0316 µM
# [4] = curve of first compound, second compound 0.1 µM
# [5] = curve of first compound, second compound 0.316 µM
# [6] = curve of first compound, second compound 1 µM
# [7] = second compound 0.00316 µM, first compound 0.0316 µM
# [8] = second compound 0.00316 µM, first compound 0.1 µM
# [9] = second compound 0.00316 µM, first compound 0.316 µM
# [10] = second compound 0.00316 µM, first compound 1 µM
# [11] = second compound 0.00316 µM, first compound 3.16 µM
# [12] = second compound 0.00316 µM, first compound 10 µM
# [13] = second compound 0.01 µM, first compound 0.0316 µM
# [14] = second compound 0.01 µM, first compound 0.1 µM
# [15] = second compound 0.01 µM, first compound 0.316 µM
# [16] = second compound 0.01 µM, first compound 1 µM
# [17] = second compound 0.01 µM, first compound 3.16 µM
# [18] = second compound 0.01 µM, first compound 10 µM
# [19] = second compound 0.0316 µM, first compound 0.0316 µM
# [20] = second compound 0.0316 µM, first compound 0.1 µM
# [21] = second compound 0.0316 µM, first compound 0.316 µM
# [22] = second compound 0.0316 µM, first compound 1 µM
# [23] = second compound 0.0316 µM, first compound 3.16 µM
# [24] = second compound 0.0316 µM, first compound 10 µM
# [25] = second compound 0.1 µM, first compound 0.0316 µM
# [26] = second compound 0.1 µM, first compound 0.1 µM
# [27] = second compound 0.1 µM, first compound 0.316 µM
# [28] = second compound 0.1 µM, first compound 1 µM
# [29] = second compound 0.1 µM, first compound 3.16 µM
# [30] = second compound 0.1 µM, first compound 10 µM
# [31] = second compound 0.316 µM, first compound 0.0316 µM
# [32] = second compound 0.316 µM, first compound 0.1 µM
# [33] = second compound 0.316 µM, first compound 0.316 µM
# [34] = second compound 0.316 µM, first compound 1 µM
# [35] = second compound 0.316 µM, first compound 3.16 µM
# [36] = second compound 0.316 µM, first compound 10 µM
# [37] = second compound 1 µM, first compound 0.0316 µM
# [38] = second compound 1 µM, first compound 0.1 µM
# [39] = second compound 1 µM, first compound 0.316 µM
# [40] = second compound 1 µM, first compound 1 µM
# [41] = second compound 1 µM, first compound 3.16 µM
# [42] = second compound 1 µM, first compound 10 µM
# 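Note: spheroids exposed to agents for seven days before luminescence read.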
# 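Throughout, for viability, T/C: luminescent signal used as a stand-in for spheroid viability; percent viability relative to DMSO vehicle control wells taken as 100%.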
smiles,measurement,setting,value
CCCS(=O)(=O)Nc1ccc(F)c(C(=O)c2c[nH]c3ncc(-c4ccc(Cl)cc4)cc23)c1F + COc1c(OCCCN2CCOCC2)ccc2c3n(c(=NC(=O)c4cnc(N)nc4)nc12)CCN3,IC50,[1],5.31 µM
same,IC50,[2],3.71 µM
same,IC50,[3],1.87 µM
same,IC50,[4],0.331 µM
same,IC50,[5],< 0.0316 µM
same,IC50,[6],< 0.0316 µM
same,"viability, T/C",[7],87.3%
same,"viability, T/C",[8],103%
same,"viability, T/C",[9],114%
same,"viability, T/C",[10],96.9%
same,"viability, T/C",[11],82.5%
same,"viability, T/C",[12],10.3%
same,"viability, T/C",[13],102%
same,"viability, T/C",[14],102%
same,"viability, T/C",[15],84.8%
same,"viability, T/C",[16],74.8%
same,"viability, T/C",[17],61.5%
same,"viability, T/C",[18],13.6%
same,"viability, T/C",[19],95.7%
same,"viability, T/C",[20],86.3%
same,"viability, T/C",[21],65.4%
same,"viability, T/C",[22],67%
same,"viability, T/C",[23],42.6%
same,"viability, T/C",[24],16.1%
same,"viability, T/C",[25],74.7%
same,"viability, T/C",[26],66%
same,"viability, T/C",[27],46.4%
same,"viability, T/C",[28],37.7%
same,"viability, T/C",[29],27.5%
same,"viability, T/C",[30],9.08%
same,"viability, T/C",[31],44%
same,"viability, T/C",[32],37.5%
same,"viability, T/C",[33],31.8%
same,"viability, T/C",[34],24.1%
same,"viability, T/C",[35],17.2%
same,"viability, T/C",[36],8.93%
same,"viability, T/C",[37],29%
same,"viability, T/C",[38],27.1%
same,"viability, T/C",[39],20.4%
same,"viability, T/C",[40],17.2%
same,"viability, T/C",[41],12.5%
same,"viability, T/C",[42],6.57%
CC(Cn1ccc(-c2ccc(C#N)c(Cl)c2)n1)NC(=O)c1cc(C(C)O)[nH]n1 (stereo not given),"viability, T/C",compound 0.0316 µM,96.5% [middle of 4 runs]
same,"viability, T/C",compound 0.1 µM,97.2% [middle of 4 runs]
same,"viability, T/C",compound 0.316 µM,105% [middle of 4 runs]
same,"viability, T/C",compound 1 µM,95.5% [middle of 4 runs]
same,"viability, T/C",compound 3.16 µM,99.4% [middle of 4 runs]
same,"viability, T/C",compound 10 µM,104% [middle of 4 runs]
same,IC50,curve of compound,> 10 µM
CC(C)NCC(C(=O)N1CCN(c2ncnc3c2C(C)CC3O)CC1)c1ccc(Cl)cc1 (stereo not given) + Cc1nc(NC(=O)N2CCCC2C(N)=O)sc1-c1ccnc(C(C)(C)C(F)(F)F)c1,IC50,[3],5.34 µM
same,IC50,[4],5.11 µM
same,IC50,[5],4.59 µM
same,IC50,[6],2.85 µM
same,IC50,"curve of first compound, second compound 3.16 µM",2.03 µM
same,IC50,"curve of first compound, second compound 10 µM",1.42 µM
same,"viability, T/C",[19],108%
same,"viability, T/C",[20],108%
same,"viability, T/C",[21],99%
same,"viability, T/C",[22],78.2%
same,"viability, T/C",[23],59.8%
same,"viability, T/C",[24],39.7%
same,"viability, T/C",[25],107%
same,"viability, T/C",[26],92.8%
same,"viability, T/C",[27],93.2%
same,"viability, T/C",[28],77.1%
same,"viability, T/C",[29],53.2%
same,"viability, T/C",[30],43.2%
same,"viability, T/C",[31],104%
same,"viability, T/C",[32],104%
same,"viability, T/C",[33],91.1%
same,"viability, T/C",[34],75.8%
same,"viability, T/C",[35],53.3%
same,"viability, T/C",[36],41.9%
same,"viability, T/C",[37],95.5%
same,"viability, T/C",[38],105%
same,"viability, T/C",[39],86.8%
same,"viability, T/C",[40],72.6%
same,"viability, T/C",[41],46.5%
same,"viability, T/C",[42],39.5%
same,"viability, T/C","second compound 3.16 µM, first compound 0.0316 µM",86.8%
same,"viability, T/C","second compound 3.16 µM, first compound 0.1 µM",77.4%
same,"viability, T/C","second compound 3.16 µM, first compound 0.316 µM",79.8%
same,"viability, T/C","second compound 3.16 µM, first compound 1 µM",59%
same,"viability, T/C","second compound 3.16 µM, first compound 3.16 µM",44.2%
same,"viability, T/C","second compound 3.16 µM, first compound 10 µM",32.1%
same,"viability, T/C","second compound 10 µM, first compound 0.0316 µM",68.1%
same,"viability, T/C","second compound 10 µM, first compound 0.1 µM",64.9%
same,"viability, T/C","second compound 10 µM, first compound 0.316 µM",70.8%
same,"viability, T/C","second compound 10 µM, first compound 1 µM",52.5%
same,"viability, T/C","second compound 10 µM, first compound 3.16 µM",41.2%
same,"viability, T/C","second compound 10 µM, first compound 10 µM",32.8%
Cn1ncnc1[C@H]1c2n[nH]c(=O)c3cc(F)cc(c23)N[C@@H]1c1ccc(F)cc1 + CC(Nc1ccc2c(c1)OCCn1cc(N3C(=O)OCC3C(F)F)nc1-2)C(N)=O,IC50,[1],> 0.1 µM
same,IC50,[2],> 0.1 µM
same,IC50,[3],> 0.1 µM
same,IC50,[4],> 0.1 µM
same,IC50,[5],> 0.1 µM
same,IC50,[6],> 0.1 µM
same,"viability, T/C","second compound 0.00316 µM, first compound 0.000316 µM",102%
same,"viability, T/C","second compound 0.00316 µM, first compound 0.001 µM",93.5%
same,"viability, T/C","second compound 0.00316 µM, first compound 0.00316 µM",101%
same,"viability, T/C","second compound 0.00316 µM, first compound 0.01 µM",99.7%
same,"viability, T/C",[7],87.8%
same,"viability, T/C",[8],111%
same,"viability, T/C","second compound 0.01 µM, first compound 0.000316 µM",97.8%
same,"viability, T/C","second compound 0.01 µM, first compound 0.001 µM",93.6%
same,"viability, T/C","second compound 0.01 µM, first compound 0.00316 µM",102%
same,"viability, T/C","second compound 0.01 µM, first compound 0.01 µM",95.7%
same,"viability, T/C",[13],101%
same,"viability, T/C",[14],92.1%
same,"viability, T/C","second compound 0.0316 µM, first compound 0.000316 µM",107%
same,"viability, T/C","second compound 0.0316 µM, first compound 0.001 µM",99.7%
same,"viability, T/C","second compound 0.0316 µM, first compound 0.00316 µM",97.5%
same,"viability, T/C","second compound 0.0316 µM, first compound 0.01 µM",92.8%
same,"viability, T/C",[19],97.4%
same,"viability, T/C",[20],106%
same,"viability, T/C","second compound 0.1 µM, first compound 0.000316 µM",94.7%
same,"viability, T/C","second compound 0.1 µM, first compound 0.001 µM",105%
same,"viability, T/C","second compound 0.1 µM, first compound 0.00316 µM",100%
same,"viability, T/C","second compound 0.1 µM, first compound 0.01 µM",99.8%
same,"viability, T/C",[25],104%
same,"viability, T/C",[26],106%
same,"viability, T/C","second compound 0.316 µM, first compound 0.000316 µM",93.8%
same,"viability, T/C","second compound 0.316 µM, first compound 0.001 µM",99.3%
same,"viability, T/C","second compound 0.316 µM, first compound 0.00316 µM",98.2%
same,"viability, T/C","second compound 0.316 µM, first compound 0.01 µM",91.6%
same,"viability, T/C",[31],96.7%
same,"viability, T/C",[32],100%
same,"viability, T/C","second compound 1 µM, first compound 0.000316 µM",90.6%
same,"viability, T/C","second compound 1 µM, first compound 0.001 µM",90.3%
same,"viability, T/C","second compound 1 µM, first compound 0.00316 µM",94%
same,"viability, T/C","second compound 1 µM, first compound 0.01 µM",91.9%
same,"viability, T/C",[37],99.1%
same,"viability, T/C",[38],86.6%
Cn1nccc1Nc1nccc(-c2ccn(C(CO)c3ccc(Cl)c(F)c3)c(=O)c2)n1 (stereo not given) + CC(Nc1ccc2c(c1)OCCn1cc(N3C(=O)OCC3C(F)F)nc1-2)C(N)=O,IC50,[1],8.24 µM
same,IC50,[2],4.07 µM
same,IC50,[3],2.58 µM
same,IC50,[4],1.27 µM
same,IC50,[5],0.628 µM
same,IC50,[6],0.341 µM
same,"viability, T/C",[7],104%
same,"viability, T/C",[8],91.1%
same,"viability, T/C",[9],85%
same,"viability, T/C",[10],75.9%
same,"viability, T/C",[11],58.8%
same,"viability, T/C",[12],48.1%
same,"viability, T/C",[13],93.9%
same,"viability, T/C",[14],93%
same,"viability, T/C",[15],90%
same,"viability, T/C",[16],65.4%
same,"viability, T/C",[17],54.9%
same,"viability, T/C",[18],43.9%
same,"viability, T/C",[19],97.5%
same,"viability, T/C",[20],107%
same,"viability, T/C",[21],80.7%
same,"viability, T/C",[22],68.2%
same,"viability, T/C",[23],46.2%
same,"viability, T/C",[24],37.2%
same,"viability, T/C",[25],102%
same,"viability, T/C",[26],95%
same,"viability, T/C",[27],80.6%
same,"viability, T/C",[28],52.2%
same,"viability, T/C",[29],36.4%
same,"viability, T/C",[30],24.8%
same,"viability, T/C",[31],105%
same,"viability, T/C",[32],95%
same,"viability, T/C",[33],76.6%
same,"viability, T/C",[34],31.7%
same,"viability, T/C",[35],20.2%
same,"viability, T/C",[36],17.4%
same,"viability, T/C",[37],84.1%
same,"viability, T/C",[38],81.1%
same,"viability, T/C",[39],51.9%
same,"viability, T/C",[40],20.5%
same,"viability, T/C",[41],15.1%
same,"viability, T/C",[42],15.3%

# Reference: PubChem BioAssay AID1963977 (Molecular Pharmacology Branch, DTP, NCI, 2024)
